In PubChem BioAssay AID256 (DTP/NCI, 2004):
Several values for one entry are separate records, joined by “and”; a condition that tells them apart may be missing. Equal entries are not always repeated. Inconclusive results and toxic doses are left out.

System: CD2F1 mice, L1210 leukemia ip, survival T/C
Assay: NCI In Vivo Anticancer Drug Screen. Data for tumor model L1210 Leukemia (intraperitoneal) in CD2F1 (CDF1) mice
Details: higher = longer survival
Method in brief: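 Transplantable tumor in mice; compound-treated vs vehicle-treated groups. Read-out = treated/control ratio of the measured endpoint.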

[1] = endpoint: mean survival time, dose: 100.0 mg/kg/injection, schedule: Q01DX001 (ip), vehicle: saline with Tween-80
[2] = endpoint: mean survival time, dose: 200.0 mg/kg/injection, schedule: Q01DX001 (ip), vehicle: saline with Tween-80
[3] = endpoint: mean survival time, dose: 400.0 mg/kg/injection, schedule: Q01DX001 (ip), vehicle: saline with Tween-80
[4] = endpoint: mean survival time, dose: 100.0 mg/kg/injection, schedule: Q04DX003 (ip), vehicle: saline
[5] = endpoint: mean survival time, dose: 200.0 mg/kg/injection, schedule: Q04DX003 (ip), vehicle: saline
[6] = endpoint: mean survival time, dose: 400.0 mg/kg/injection, schedule: Q04DX003 (ip), vehicle: saline
[7] = endpoint: mean survival time, dose: 100.0 mg/kg/injection, schedule: Q04DX003 (ip), vehicle: saline with Tween-80
[8] = endpoint: mean survival time, dose: 200.0 mg/kg/injection, schedule: Q04DX003 (ip), vehicle: saline with Tween-80
[9] = endpoint: mean survival time, dose: 100.0 mg/kg/injection, schedule: Q01DX009 (ip), vehicle: saline with Tween-80
[10] = endpoint: mean survival time, dose: 200.0 mg/kg/injection, schedule: Q01DX009 (ip), vehicle: saline with Tween-80
[11] = endpoint: mean survival time, dose: 400.0 mg/kg/injection, schedule: Q01DX009 (ip), vehicle: saline with Tween-80
[12] = endpoint: mean survival time, dose: 400.0 mg/kg/injection, schedule: Q04DX003 (ip), vehicle: saline with Tween-80
[13] = endpoint: mean survival time, dose: 50.0 mg/kg/injection, schedule: Q01DX009 (ip), vehicle: saline with Tween-80

With `CCOc1cccc(Cc2cn(Cc3cccc(NC(=O)Nc4cccc(S(=O)(=O)F)c4)c3)c(=O)[nH]c2=O)c1` the T/C [1] was 95 % of control, the T/C [2] was 95 % of control and the T/C [3] was 94 % of control.

For `O=C(O)C(=O)Cc1cccc(Cl)c1[N+](=O)[O-]`, the T/C (endpoint: mean survival time, dose: 37.5 mg/kg/injection, schedule: Q01DX009 (ip), vehicle: saline) was 97 % of control, the T/C (endpoint: mean survival time, dose: 75.0 mg/kg/injection, schedule: Q01DX009 (ip), vehicle: saline) was 103 % of control and the T/C (endpoint: mean survival time, dose: 150.0 mg/kg/injection, schedule: Q01DX009 (ip), vehicle: saline) was 97 % of control.

`O=C(c1ccccc1)c1cc(-c2ccccc2)nc2ccccc2c2ccccc2[nH]1` was tested, and the T/C (endpoint: mean survival time, dose: 100.0 mg/kg/injection, schedule: Q01DX001 (ip), vehicle: Klucel (hydroxypropylcellulose) (HPC)) was 93 % of control, the T/C (endpoint: mean survival time, dose: 200.0 mg/kg/injection, schedule: Q01DX001 (ip), vehicle: Klucel (hydroxypropylcellulose) (HPC)) was 91 % of control and the T/C (endpoint: mean survival time, dose: 400.0 mg/kg/injection, schedule: Q01DX001 (ip), vehicle: Klucel (hydroxypropylcellulose) (HPC)) was 100 % of control.

For `C[Si](OCc1ccc(-c2ccccc2)cc1)c1ccccc1`, the T/C (endpoint: mean survival time, dose: 100.0 mg/kg/injection, schedule: Q01DX009 (ip), vehicle: saline) was 99 % of control, the T/C [4] was 96 % of control and the T/C (endpoint: mean survival time, dose: 200.0 mg/kg/injection, schedule: Q01DX009 (ip), vehicle: saline) was 100 % of control. For the same compound, the T/C [5] was 93 % of control, the T/C (endpoint: mean survival time, dose: 400.0 mg/kg/injection, schedule: Q01DX009 (ip), vehicle: saline) was 94 % of control and the T/C [6] was 98 % of control.

For `S=c1[n-]c2ccccc2s1.S=c1[n-]c2ccccc2s1.[Cl][Pt+2][Cl]`, the T/C (endpoint: mean survival time, dose: 25.0 mg/kg/injection, schedule: Q04DX003 (ip), vehicle: saline with Tween-80) was 95 % of control, the T/C (endpoint: mean survival time, dose: 50.0 mg/kg/injection, schedule: Q04DX003 (ip), vehicle: saline with Tween-80) was 88 % of control and the T/C [7] was 93 % of control. For the same compound, the T/C [8] was 90 % of control.

`N#Cc1cnn2ccn(C3OC(CO)C(O)C3O)c12` (stereo not given) was tested, and the T/C (endpoint: median survival time, dose: 9.38 mg/kg/injection, schedule: Q01DX005 (ip), vehicle: water) was 97 % of control, the T/C (endpoint: median survival time, dose: 18.75 mg/kg/injection, schedule: Q01DX005 (ip), vehicle: water) was 100 % of control and the T/C (endpoint: median survival time, dose: 37.5 mg/kg/injection, schedule: Q01DX005 (ip), vehicle: water) was 98 % of control. The T/C (endpoint: median survival time, dose: 75.0 mg/kg/injection, schedule: Q01DX005 (ip), vehicle: water) was 98 % of control and the T/C (endpoint: median survival time, dose: 150.0 mg/kg/injection, schedule: Q01DX005 (ip), vehicle: water) was 97 % of control.

With `CCCCCCCCCCCCCCCCOC(=O)c1cc([N+](=O)[O-])c(Sc2ncnc3nc[nH]c23)c([N+](=O)[O-])c1` the T/C (endpoint: mean survival time, dose: 6.25 mg/kg/injection, schedule: Q01DX005 (ip), vehicle: other) was 105 % of control, the T/C (endpoint: mean survival time, dose: 12.5 mg/kg/injection, schedule: Q01DX005 (ip), vehicle: other) was 110 % of control and the T/C (endpoint: mean survival time, dose: 25.0 mg/kg/injection, schedule: Q01DX005 (ip), vehicle: other) was 107 % of control. For the same compound, the T/C (endpoint: mean survival time, dose: 50.0 mg/kg/injection, schedule: Q01DX005 (ip), vehicle: other) was 117 % of control and the T/C (endpoint: mean survival time, dose: 100.0 mg/kg/injection, schedule: Q01DX005 (ip), vehicle: other) was 102 % of control.

In the case of `Cc1ccc(NCC(=O)O)c([N+](=O)[O-])c1`, the T/C [7] is reported as 95 % of control and the T/C [8] is reported as 103 % of control.

For `CCN(C(=O)c1ccccc1Cl)C(c1ccco1)P(=O)(c1ccccc1)c1ccccc1` (stereo not given), the T/C [9] was 90 % of control and the T/C [10] was 107 % of control.

In the case of `CCOP(=O)(OCC)/C(C#N)=C\c1ccc(OC)c(OC)c1`, the T/C [9] is reported as 98 % of control, the T/C [10] is reported as 94 % of control and the T/C [11] is reported as 100 % of control.

With `CC(=O)OC1CCC2(C)C(=CCC3C2CCC2(C)C(C(C)CCC(=O)O)CCC32)C1` (stereo not given) the T/C [9] was 95 % of control, the T/C [10] was 95 % of control and the T/C [11] was 96 % of control.

For `CNC(=O)c1ccccc1N=NN(C)C`, the T/C (endpoint: mean survival time, dose: 18.75 mg/kg/injection, schedule: Q01DX009 (ip), vehicle: Klucel (hydroxypropylcellulose) (HPC)) was 98 % of control and 103 % of control and 106 % of control, the T/C (endpoint: mean survival time, dose: 37.5 mg/kg/injection, schedule: Q01DX009 (ip), vehicle: Klucel (hydroxypropylcellulose) (HPC)) was 122 % of control and 98 % of control and 105 % of control and the T/C (endpoint: mean survival time, dose: 75.0 mg/kg/injection, schedule: Q01DX009 (ip), vehicle: Klucel (hydroxypropylcellulose) (HPC)) was 122 % of control.

In the case of `CCCCC[CH2][Sn](=[O])[CH2]CCCCC`, the T/C [7] is reported as 100 % of control, the T/C [8] is reported as 97 % of control and the T/C [12] is reported as 111 % of control.

With `O=C(/C=C/c1ccccc1)NC(=S)NCc1ccccc1Cl` the T/C [13] was 95 % of control and 96 % of control, the T/C [1] was 94 % of control and the T/C (endpoint: mean survival time, dose: 100.0 mg/kg/injection, schedule: Q04DX002 (ip), vehicle: saline with Tween-80) was 95 % of control and 110 % of control. The T/C [2] was 92 % of control, the T/C (endpoint: mean survival time, dose: 200.0 mg/kg/injection, schedule: Q04DX002 (ip), vehicle: saline with Tween-80) was 90 % of control and 95 % of control and the T/C [3] was 95 % of control. For the same compound, the T/C (endpoint: mean survival time, dose: 400.0 mg/kg/injection, schedule: Q04DX002 (ip), vehicle: saline with Tween-80) was 98 % of control and 101 % of control.

With `CC(=O)NC1=C(Sc2ccc(C)cc2)C(=O)c2ccccc2C1=O` the T/C (endpoint: mean survival time, dose: 75.0 mg/kg/injection, schedule: Q01DX001 (ip), vehicle: saline) was 96 % of control, the T/C (endpoint: mean survival time, dose: 150.0 mg/kg/injection, schedule: Q01DX001 (ip), vehicle: saline) was 98 % of control and the T/C (endpoint: mean survival time, dose: 300.0 mg/kg/injection, schedule: Q01DX001 (ip), vehicle: saline) was 108 % of control.

`CCOC1=NN(c2ccccc2)C(=O)C1` was tested, and the T/C [7] was 97 % of control, the T/C [8] was 100 % of control and the T/C [12] was 103 % of control.

In the case of `CCC1(O)C(=O)OCc2c1cc1n(c2=O)Cc2cc3cc4c(cc3nc2-1)OCO4` (stereo not given), the T/C (endpoint: median survival time, dose: 1.0 mg/kg/injection, schedule: Q01DX005 (ip), vehicle: saline with Tween-80) is reported as 192 % of control, the T/C (endpoint: median survival time, dose: 2.0 mg/kg/injection, schedule: Q01DX005 (ip), vehicle: saline with Tween-80) is reported as 114 % of control and the T/C (endpoint: median survival time, dose: 2.0 mg/kg/injection, schedule: Q04DX002 (ip), vehicle: saline with Tween-80) is reported as 325 % of control. The T/C (endpoint: median survival time, dose: 4.0 mg/kg/injection, schedule: Q01DX005 (ip), vehicle: saline with Tween-80) was 101 % of control, the T/C (endpoint: median survival time, dose: 4.0 mg/kg/injection, schedule: Q04DX002 (ip), vehicle: saline with Tween-80) was 190 % of control and 228 % of control and the T/C (endpoint: median survival time, dose: 16.0 mg/kg/injection, schedule: Q04DX002 (ip), vehicle: saline with Tween-80) was 115 % of control and 124 % of control. The T/C (endpoint: median survival time, dose: 32.0 mg/kg/injection, schedule: Q04DX002 (ip), vehicle: saline with Tween-80) was 97 % of control.

With `CCCN(CCC)S(=O)(=O)c1ccc(NC(=O)Oc2ccccc2OC)cc1` the T/C (endpoint: mean survival time, dose: 100.0 mg/kg/injection, schedule: Q01DX001 (ip), vehicle: saline) was 95 % of control, the T/C (endpoint: mean survival time, dose: 200.0 mg/kg/injection, schedule: Q01DX001 (ip), vehicle: saline) was 91 % of control and the T/C (endpoint: mean survival time, dose: 400.0 mg/kg/injection, schedule: Q01DX001 (ip), vehicle: saline) was 91 % of control.

In the case of `CCCCCCCCCCCCCCCCCCc1ccc(O)cc1O`, the T/C [9] is reported as 96 % of control, the T/C [10] is reported as 101 % of control and the T/C [11] is reported as 104 % of control.

With `N#CCC(O)(/C=C/c1ccccc1)c1ccccc1` (stereo not given) the T/C [9] was 95 % of control, the T/C [7] was 97 % of control and the T/C [10] was 91 % of control. For the same compound, the T/C [11] was 89 % of control and the T/C [12] was 88 % of control.

With `CC(Cc1ccccc1)NC(C#N)c1ccccc1` (stereo not given) the T/C (endpoint: mean survival time, dose: 12.5 mg/kg/injection, schedule: Q01DX009 (ip), vehicle: saline with Tween-80) was 102 % of control, the T/C (endpoint: mean survival time, dose: 25.0 mg/kg/injection, schedule: Q01DX009 (ip), vehicle: saline with Tween-80) was 98 % of control and the T/C [13] was 101 % of control.

In the case of `CO[C@@]12[C@@H]3N[C@@H]3CN1C1=C(C(=O)C(Nc3nc(C)cs3)=C(C)C1=O)[C@@H]2COC(N)=O`, the T/C (endpoint: mean survival time, dose: 1.5 mg/kg/injection, schedule: Q01DX001 (ip), vehicle: water) is reported as 116 % of control and 112 % of control, the T/C (endpoint: mean survival time, dose: 3.0 mg/kg/injection, schedule: Q01DX001 (ip), vehicle: water) is reported as 115 % of control and the T/C (endpoint: mean survival time, dose: 6.0 mg/kg/injection, schedule: Q01DX001 (ip), vehicle: water) is reported as 121 % of control.

For `Cc1[nH]nc2c(=O)n(C)cnc12`, the T/C (endpoint: mean survival time, dose: 12.5 mg/kg/injection, schedule: Q01DX005 (ip), vehicle: water) was 103 % of control, the T/C (endpoint: mean survival time, dose: 25.0 mg/kg/injection, schedule: Q01DX005 (ip), vehicle: water) was 104 % of control and the T/C (endpoint: mean survival time, dose: 50.0 mg/kg/injection, schedule: Q01DX005 (ip), vehicle: water) was 98 % of control. The T/C (endpoint: mean survival time, dose: 100.0 mg/kg/injection, schedule: Q01DX005 (ip), vehicle: water) was 92 % of control and the T/C (endpoint: mean survival time, dose: 200.0 mg/kg/injection, schedule: Q01DX005 (ip), vehicle: water) was 95 % of control.

With `S=C(Nc1ccccc1)N1CCC(CCCC2CCN(C(=S)Nc3ccccc3)CC2)CC1` the T/C [7] was 91 % of control and the T/C [8] was 88 % of control.

`CCOC(=O)CCN(C)C` was tested, and the T/C [4] was 97 % of control, the T/C [5] was 100 % of control and the T/C [6] was 100 % of control.

With `COC(=O)CC(OC)OC` the T/C [4] was 103 % of control, the T/C [5] was 94 % of control and the T/C [6] was 92 % of control.
